Experimental data reported in the supplement of paper PMC11208160.

Assay: recombinant barcode read abundance after kanamycin selection (control-corrected) (log10(CPM+1)); higher = more efficient recombination; sequences stand for … in AGTGCAGAGAAAATCGGCCAGTTTTCTCTGCCTGCAGTCCGCATGCCGT…ATTTATGCAGCGGACTGCCTTTCTCCCAAAGTGATAAACCGGACAGTATCATGGACCGGTTTTCCCGGTAATCCGTATTTGCAAGGTTGGTTTCACT; site = the 11-nt target
Outline: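 The screen was pooled in E. coli and paired targets with IS621 bridge RNA target-binding loops. Recombination efficiency is taken from barcode counts per million at recombinant junctions, averaged and adjusted against the control. Values, in the form log10(CPM+1), come from duplicate plating on chloramphenicol/ampicillin LB agar or on chloramphenicol/ampicillin/kanamycin with 0.1 mM IPTG.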

Point of comparison: “TGATACCCTTGGGTTCTAACCTGTTGCGTGT [TGATACCCTAC_LTGcore_CT_RTGcore_AC] (site TGATACCCTAC) (LTG core: CT, RTG core: AC)”, “recombinant barcode read abundance (log10)” value 0.0827. Against it:
- TCTACCCTGTGGGTTCTAACCTGTTGCTGAG [TCTACCCCTCA_LTGcore_TG_RTGcore_CT] (site TCTACCCCTCA) (LTG core: TG, RTG core: CT) — within 0.2 log units, 0.0669
- TCTACCCTGTGGGTTCTAACCTGTTGCTGCA [TCTACCCCTCA_LTGcore_TG_RTGcore_TG] (site TCTACCCCTCA) (LTG core: TG, RTG core: TG) — within 0.2 log units, 0.0126
- TGATACCATTGGGTTCTAACCTGTTGCGTAT [TGATACCCTAC_LTGcore_AT_RTGcore_AT] (site TGATACCCTAC) (LTG core: AT, RTG core: AT) — within 0.2 log units, 0.0803
- TGATACCCCTGGGTTCTAACCTGTTGCGTGG [TGATACCCTAC_LTGcore_CC_RTGcore_CC] (site TGATACCCTAC) (LTG core: CC, RTG core: CC) — higher, 0.351
- TGATACCCTTGGGTTCTAACCTGTTGCGTGC [TGATACCCTAC_LTGcore_CT_RTGcore_GC] (site TGATACCCTAC) (LTG core: CT, RTG core: GC) — higher, 1.67
- TGATACCCTTGGGTTCTAACCTGTTGCGTTC [TGATACCCTAC_LTGcore_CT_RTGcore_GA] (site TGATACCCTAC) (LTG core: CT, RTG core: GA) — higher, 0.335
- TGATACCCTTGGGTTCTAACCTGTTGCGTTT [TGATACCCTAC_LTGcore_CT_RTGcore_AA] (site TGATACCCTAC) (LTG core: CT, RTG core: AA) — higher, 0.666
- TGATACCGCTGGGTTCTAACCTGTTGCGTAG [TGATACCCTAC_LTGcore_GC_RTGcore_CT] (site TGATACCCTAC) (LTG core: GC, RTG core: CT) — within 0.2 log units, 0.164
- TGATACCTCTGGGTTCTAACCTGTTGCGTAG [TGATACCCTAC_LTGcore_TC_RTGcore_CT] (site TGATACCCTAC) (LTG core: TC, RTG core: CT) — within 0.2 log units, 0.146
- TGATACCTTTGGGTTCTAACCTGTTGCGTAG [TGATACCCTAC_LTGcore_TT_RTGcore_CT] (site TGATACCCTAC) (LTG core: TT, RTG core: CT) — within 0.2 log units, 0.0115
- TGTATTCAGTGGGTTCTAACCTGTTGCCTAG [TGTATTCCTAG_LTGcore_AG_RTGcore_CT] (site TGTATTCCTAG) (LTG core: AG, RTG core: CT) — within 0.2 log units, 0.0134
- TGTATTCATTGGGTTCTAACCTGTTGCCTAT [TGTATTCCTAG_LTGcore_AT_RTGcore_AT] (site TGTATTCCTAG) (LTG core: AT, RTG core: AT) — within 0.2 log units, 0.144
- TGTATTCCATGGGTTCTAACCTGTTGCCTTG [TGTATTCCTAG_LTGcore_CA_RTGcore_CA] (site TGTATTCCTAG) (LTG core: CA, RTG core: CA) — higher, 0.579
- TGTATTCCGTGGGTTCTAACCTGTTGCCTAG [TGTATTCCTAG_LTGcore_CG_RTGcore_CT] (site TGTATTCCTAG) (LTG core: CG, RTG core: CT) — higher, 0.356
- TGTATTCCGTGGGTTCTAACCTGTTGCCTCG [TGTATTCCTAG_LTGcore_CG_RTGcore_CG] (site TGTATTCCTAG) (LTG core: CG, RTG core: CG) — within 0.2 log units, 0.0909
- TGTATTCCTTGGGTTCTAACCTGTTGCCTAC [TGTATTCCTAG_LTGcore_CT_RTGcore_GT] (site TGTATTCCTAG) (LTG core: CT, RTG core: GT) — within 0.2 log units, 0.0923
- TGTATTCCTTGGGTTCTAACCTGTTGCCTCA [TGTATTCCTAG_LTGcore_CT_RTGcore_TG] (site TGTATTCCTAG) (LTG core: CT, RTG core: TG) — within 0.2 log units, 0.1
- TGTATTCCTTGGGTTCTAACCTGTTGCCTCT [TGTATTCCTAG_LTGcore_CT_RTGcore_AG] (site TGTATTCCTAG) (LTG core: CT, RTG core: AG) — within 0.2 log units, 0.0303
- TGTATTCCTTGGGTTCTAACCTGTTGCCTTG [TGTATTCCTAG_LTGcore_CT_RTGcore_CA] (site TGTATTCCTAG) (LTG core: CT, RTG core: CA) — within 0.2 log units, 0.0735
- TGTATTCTCTGGGTTCTAACCTGTTGCCTAG [TGTATTCCTAG_LTGcore_TC_RTGcore_CT] (site TGTATTCCTAG) (LTG core: TC, RTG core: CT) — within 0.2 log units, 0.0135
- TTATAAAAATGGGTTCTAACCTGTTGCCTTT [TTATAAACTAG_LTGcore_AA_RTGcore_AA] (site TTATAAACTAG) (LTG core: AA, RTG core: AA) — within 0.2 log units, 0.038
- TTATAAAACTGGGTTCTAACCTGTTGCCTAG [TTATAAACTAG_LTGcore_AC_RTGcore_CT] (site TTATAAACTAG) (LTG core: AC, RTG core: CT) — higher, 0.39
- TTATAAAATTGGGTTCTAACCTGTTGCCTAG [TTATAAACTAG_LTGcore_AT_RTGcore_CT] (site TTATAAACTAG) (LTG core: AT, RTG core: CT) — within 0.2 log units, 0.0851
- TTATAAAATTGGGTTCTAACCTGTTGCCTAT [TTATAAACTAG_LTGcore_AT_RTGcore_AT] (site TTATAAACTAG) (LTG core: AT, RTG core: AT) — within 0.2 log units, 0.124
- TTATAAACCTGGGTTCTAACCTGTTGCCTGG [TTATAAACTAG_LTGcore_CC_RTGcore_CC] (site TTATAAACTAG) (LTG core: CC, RTG core: CC) — within 0.2 log units, 0.0325
- TTATAAACTTGGGTTCTAACCTGTTGCCTAC [TTATAAACTAG_LTGcore_CT_RTGcore_GT] (site TTATAAACTAG) (LTG core: CT, RTG core: GT) — higher, 0.944
- TTATAAACTTGGGTTCTAACCTGTTGCCTAT [TTATAAACTAG_LTGcore_CT_RTGcore_AT] (site TTATAAACTAG) (LTG core: CT, RTG core: AT) — higher, 0.302
- TTATAAACTTGGGTTCTAACCTGTTGCCTGG [TTATAAACTAG_LTGcore_CT_RTGcore_CC] (site TTATAAACTAG) (LTG core: CT, RTG core: CC) — higher, 0.574
- TTATAAACTTGGGTTCTAACCTGTTGCCTTT [TTATAAACTAG_LTGcore_CT_RTGcore_AA] (site TTATAAACTAG) (LTG core: CT, RTG core: AA) — within 0.2 log units, 0.0604
- TTATAAAGTTGGGTTCTAACCTGTTGCCTAG [TTATAAACTAG_LTGcore_GT_RTGcore_CT] (site TTATAAACTAG) (LTG core: GT, RTG core: CT) — within 0.2 log units, 0.109
- TTATAAATATGGGTTCTAACCTGTTGCCTTA [TTATAAACTAG_LTGcore_TA_RTGcore_TA] (site TTATAAACTAG) (LTG core: TA, RTG core: TA) — higher, 0.855
- TTATAAATGTGGGTTCTAACCTGTTGCCTAG [TTATAAACTAG_LTGcore_TG_RTGcore_CT] (site TTATAAACTAG) (LTG core: TG, RTG core: CT) — within 0.2 log units, 0.083
- TTATAAATTTGGGTTCTAACCTGTTGCCTAG [TTATAAACTAG_LTGcore_TT_RTGcore_CT] (site TTATAAACTAG) (LTG core: TT, RTG core: CT) — within 0.2 log units, 0.0473
